Calls of active or inactive are those of the source.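 Rule for the calls: active = compounds giving half or more protection of infected cells from virus-caused growth loss, again on retest; inactive = the rest.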
Test system: CEM cells HIV-1 protection, formazan growth assay
Assay: NCI AIDS Antiviral Assay
Details: for IC50: measured here: growth of uninfected CEM cells
In short: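 CEM (human) cells, HIV-1 infected vs uninfected, 5-point dosing, formazan growth read-out. Retest threshold 50% protection.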

| Compound | EC50 [µM] | IC50 [µM] | outcome |
| --- | --- | --- | --- |
| CCCc1cc(=O)oc2c3c(cc(OS(=O)(=O)c4ccc(C)cc4)c12)O[C@H](C)[C@H](C)C3=O | > 151 | 95.5 |  |
| O=C(O)C12C(=O)NC(=O)C1(C(=O)O)C21CCCCC1 (stereo not given) | > 933 | > 933 |  |
| O=C1CC(=O)N(C=C2C(=O)NC(=O)NC2=O)C(=S)N1 | > 200 | > 200 |  |
| Cc1ccc(C(=O)C(c2nc3n(c2O)C(=N)N=N3)c2nc3n(c2O)C(=N)N=N3)cc1 (stereo not given) | > 12.9 | > 12.9 |  |
| Cc1occc1C(=S)Nc1ccc(Cl)c(C(=O)OCC2CC2)c1 | 0.0186 | 53.7 |  |
| COc1ccc(C2=NOP(c3ccccc3)(c3ccccc3)(c3ccccc3)C2)cc1 | > 105 | 0.661 |  |
| O=C1CCN(CCC(F)(F)C(F)(F)C(F)(F)C(F)(F)C(F)(F)C(F)(F)F)C(=S)N1CCC(F)(F)C(F)(F)C(F)(F)C(F)(F)C(F)(F)C(F)(F)F | > 16.6 | > 16.6 |  |
| CC1=NNC(=O)C1C(CC(=O)c1c[nH]c2ccccc12)C(=O)O (stereo not given) | > 200 | 126 |  |
| O=C(O)C1CC2=C(CN1)Cc1ccccc12 (stereo not given) | > 9.33 | > 9.33 |  |
| CCP(=O)(CC)C(Cl)Cl | > 200 | > 200 |  |
| O=[N+]([O-])C[C@@]12O[C@]3(O)C4C5CC(C6C5C3C61)C42 (stereo not given in full) | > 200 | > 200 |  |
| C=C(C)[C@@H]1CC[C@]2(C(=O)OC)CC[C@]3(C)[C@H](CC[C@@H]4[C@@]5(C)CC[C@H](O)C(C)(C)[C@@H]5CC[C@]43C)[C@@H]12 |  |  | inactive |
| Cc1c(Cl)cccc1N=NC(=O)NNc1cccc(Cl)c1C | > 200 | 33.1 |  |
| C/C(=C\C(=O)OCCCCCCCC(=O)Nc1c2sscc-2[nH]c1=O)C(O)[C@@H]1OCC(C/C=C/[C@@H](C)[C@H](C)O)[C@@H](O)[C@H]1O (stereo not given in full) | > 200 | 3.16 |  |
| O=C1CN(CCc2ccccc2)CC(=O)N2C(c3ccccc3)CCCN12 (stereo not given) |  |  | inactive |
| N=C(N)Oc1ccc(Cl)cc1 | > 200 | 26.9 |  |
| CC(=O)C1=C(C)N2C(=NC3=C(CCc4ccccc43)C2c2ccc(Cl)cc2)S1 (stereo not given) | > 200 | 18.6 |  |
| Cc1cccc(C2SCc3nc4ccccc4n32)c1 (stereo not given) |  |  | inactive |
| CC(C)(C)C(=O)OCC1CCC(n2cnc3c(=O)[nH]c(N)nc32)O1 (stereo not given) | > 15.5 | > 15.5 |  |
| O=C(O)c1ccc(CI)cc1 | > 200 | 24.5 |  |
| O=C1c2ccccc2C(=O)C1(c1ccccn1)[N+](=O)[O-] | > 200 | 72.4 |  |
| S=C1SC2(CCCCCC2)NC2=C1CCCCC2 | > 25.7 | 15.8 |  |

| Compound | EC50 [µM] | IC50 [µM] | outcome |
| --- | --- | --- | --- |
| Cc1ccc(NC(=O)C(=O)CC(=O)C2CCOC2=O)c(C)c1 (stereo not given) |  |  | inactive |
| CNC(=O)/C(C#N)=C(\N)N1CCCC1 | > 200 | > 200 |  |
| CC(=O)Nc1ccc(Nc2cc(=O)n(C)c(=O)[nH]2)cc1 | > 200 | > 200 |  |
| CC(C(=O)O)[S+]1CCOCC1 (stereo not given) | 0.0631 | > 200 |  |
| CCOC(=O)CC[C@H](NC(=O)c1[nH]cnc1/N=N/N(C)C)C(=O)OCC | > 676 | 339 |  |
| CNCC(=O)c1ccc(O)c(O)c1 | > 200 | > 200 |  |
| N#CC(N)(C(=O)CCC(=O)Nc1cccc(Cl)c1)c1ccc(Cl)cc1 (stereo not given) | > 661 | > 661 |  |
| CC(=O)CC(c1ccccc1)c1c(O)c2ccccc2oc1=O (stereo not given) | > 813 | 372 |  |
| Cc1nc(C(N)=S)sc1/C(CC(=O)C(=O)Nc1cccc2ccc(O)cc12)=N\NC(=O)c1ccncc1 | > 35.5 | > 35.5 |  |
| O=C(OCCN1CCCCC1)c1cc2ccccc2n1-c1ccccc1 | > 200 | 97.7 |  |
| C=C1C2CCC3(CCC4C5(C)CCCC4(C=[N+](CCO)C5)C3C2)C1O (stereo not given) |  |  | inactive |
| CCOC(=O)c1nc2cc(C(F)(F)F)ccc2nc1Oc1ccc(OC)cc1 | > 200 | 174 |  |
| CC1=COC(=O)c2ccccc2N1 | > 537 | 141 |  |
| COc1ccc(OC)c2c1-c1nnnn1CCC2(C)C | 132 | > 200 |  |
| Nc1ccc(C(=O)N/C(=C\C=C\c2ccco2)c2nc3c4c(ccc3[nH]2)C(=O)c2ccccc2C4=O)cc1 |  |  | inactive |
| NC(N)=NS(=O)(=O)c1ccc(NC(=O)c2cccc3c(NNc4ccc(S(N)(=O)=O)cc4)c4ccccc4nc23)cc1 | > 200 | 28.2 |  |
| CCOC(=O)/C(=C/c1cc(OC)ccc1OC)P(=O)(OCC)OCC | > 676 | 316 |  |
| CCOC(=O)NC(=O)c1cn(CCN2CCN(C(=O)CNC(=O)CNC(=O)Cn3cc(C(=O)NC(=O)OCC)c(=O)[nH]c3=O)CC2)c(=O)[nH]c1=O |  |  | inactive |
| CN1NC(c2ccccc2)=C(C#N)C(=O)CC1c1cccs1 (stereo not given) | > 200 | > 200 |  |
| On1c(-c2ccccc2)c(-c2ccccc2N2CCCC2)c2ccccc21 |  |  | inactive |
| O=C(/C=C/c1ccsc1)c1ccsc1 | > 200 | 3.39 |  |
| O=C(CO)CC(=O)C(=O)Nc1ccccc1 | > 151 | > 151 |  |

| Compound | EC50 [µM] | IC50 [µM] | outcome |
| --- | --- | --- | --- |
| COc1cc2c(cc1OCCCCN1C(=O)c3cccc4cccc(c34)C1=O)N=C[C@@H]1CCCN1C2=O | > 200 | 3.47 |  |
| N#Cc1c(N2CCCC2)[nH]c(=O)[nH]c1=S | > 200 | > 200 |  |
| O=C(Cc1csc2[n+]1C(=O)/C(=C/c1cccc([N+](=O)[O-])c1)S2)Nc1ccccc1 |  |  | inactive |
| CC(=O)Nc1ccc2c(C(=O)O)c(C)c(=O)[nH]c2n1 | > 200 | 112 |  |
| c1ccc(N2N=C3N(c4ccccc4)C2N3c2ccccc2)cc1 | > 200 | 30.2 |  |
| OCC(O)C(O)c1nn(-c2ccccc2)c2nc3cc(Cl)c(Cl)cc3nc12 (stereo not given) |  |  | inactive |
| NC(=O)C(NCc1ccccc1)c1ccccc1 (stereo not given) | > 200 | > 200 |  |
| CC(=O)Nc1c2sscc-2n(C)c1=O | > 16.6 | 0.891 |  |
| O=[N+]([O-])/C(Cl)=C(\NCCO)C(Cl)=C(Cl)Cl | > 200 | 63.1 |  |
| O=C1[C@@H]2C[C@@H](O)CN2C(=O)c2ccccc2N1CCCO |  |  | inactive |
| O=C(O)c1cccc2cccc(-c3c4ccc(=O)cc-4oc4cc(O)ccc34)c12 | 14.1 | 123 |  |
| COc1ccc(Cc2nn(C3OC(COC(C)=O)C(OC(C)=O)C(OC(C)=O)C3OC(C)=O)c(=S)n(-c3ccc(OC)cc3)c2=O)cc1 (stereo not given) |  |  | inactive |
| COC(=O)c1cc(C)ccc1/C=C1\Cc2cc(C)c(C)cc2C1=O | > 100 | > 100 |  |
| CCOC(=O)C1(C(C)=O)OC(=O)c2cnccc21 (stereo not given) | > 200 | > 200 |  |
| Cc1ccccc1C(=O)NC(O)(C(F)(F)F)C(F)(F)F |  |  | inactive |
| COc1cc(CNc2nc3ccccc3nc2-c2cccs2)cc(OC)c1OC | > 200 | 14.8 |  |
| O=c1[nH]c(=O)n(CCOc2ccc(Cl)cc2)cc1Nc1ccccc1 | > 200 | 135 |  |
| CC(=O)OCC1OC(n2c(-c3ccccc3)c(N=Nc3ccc(C)cc3)c(C)c(C#N)c2=S)C(OC(C)=O)C(OC(C)=O)C1OC(C)=O (stereo not given) | 195 | > 200 |  |
| O=C(Cn1ccnc1[N+](=O)[O-])c1ccccc1 | > 562 | > 562 |  |
| COc1c(CCl)cc(-c2cc(=O)c3ccccc3s2)cc1CCl | > 200 | > 200 |  |
| Cc1cc(C)n2c(nc3ccccc32)c1C#N | > 200 | 148 |  |
| Cc1cc(-c2c(O)c3c(ccc4ccccc43)oc2=O)no1 | > 200 | 93.3 |  |

| Compound | EC50 [µM] | IC50 [µM] | outcome |
| --- | --- | --- | --- |
| N#Cc1c(O)c(N=Nc2ccc(Cl)cc2)c(=O)n2c1[nH]c1ccccc12 | > 200 | 53.7 |  |
| CCCCCCCCCCCCCCCCNC(=S)N/C=C(/C#N)C(=O)OC |  |  | inactive |
| CC(C)N(C(=O)C12C3C4C1(I)C1C2C3(I)C41C(=O)N(C(C)C)C(C)C)C(C)C (stereo not given) | > 8.51 | > 8.51 |  |
| CSCC1(O)CCCCC1 | > 200 | > 200 |  |
| CCN1C(=O)C(C)C=C(C)C=C1C (stereo not given) | > 724 | > 724 |  |
| CC1c2c(cc(=O)[nH]c2O)C(=O)N1C (stereo not given) | > 245 | > 245 |  |
| N#Cc1nc(Nc2cccc3ccccc23)sc1N | > 135 | 60.3 |  |
| CC(=O)OC1COC(N2c3ccccc3[C@@H]3CCc4c([nH]c5ccccc45)[C@@H]32)C(OC(C)=O)C1OC(C)=O (mixture of isomers) | > 155 | 19.5 |  |
| O=C(CC(=O)c1cccc([N+](=O)[O-])c1)C(=O)Nc1ccccc1 | > 417 | > 417 |  |
| N.N.N.N.O=C([O-])C(=O)O.O=C([O-])C(=O)[O-].[Co+3] |  |  | inactive |
| Cc1ccc(SSc2nnnn2C)cc1 | > 200 | 11 |  |
| CC(C)CCC[C@@H](C)[C@H]1CC[C@H]2[C@@H]3CC[C@H]4C[C@@H](CCC=C(c5cc(Cl)c(OCc6ccccc6C(=O)O)c(C(=O)O)c5)c5cc(Cl)c(OCc6ccccc6C(=O)O)c(C(=O)O)c5)CC[C@]4(C)[C@H]3CC[C@]12C | 67.6 | > 200 |  |
| O=C(O)c1ccc(-c2c3ccc(=O)cc-3oc3cc(O)ccc23)c(C(=O)O)c1 | 60.3 | 162 |  |
| C#CCN(C(=O)C(F)(F)F)C(/C=C\C(=O)OC)(C(=O)OCC)C(=O)OCC | > 200 | 83.2 |  |
| Cn1cc2c(=O)n3ncn(-c4ccc(Br)cc4)c3nc2n1 | > 200 | > 200 |  |
| Cc1nc2c(N)ncnc2o1 | > 9.55 | > 9.55 |  |
| Cc1csc2c(=O)n(C3OC(CO)C(O)C3O)c(=O)[nH]c12 (stereo not given) | > 200 | > 200 |  |
| CCO[C@@H]1OC(=O)[C@H]2C(c3ccc(Cl)cc3Cl)=NO[C@@H]12 | > 22.9 | > 22.9 |  |
| O=Nc1c(O)c2ccccc2[nH]c1=O | > 200 | 45.7 |  |
| Cc1cc(O)c2c(O)c3c(O)cc(=O)c(-c4c(=O)cc(O)c5c(O)c6c(O)cc(C)oc6cc45)c3cc2o1 |  |  | inactive |
| CCOP(=O)(OCC)/C(C#N)=C/c1ccccn1 | 148 | > 200 |  |
| O=C1/C(=C/c2ccc([N+](=O)[O-])cc2)C(=O)N(c2ccccc2)C1c1ccccc1 (stereo not given) | > 74.1 | 41.7 |  |

Source: PubChem BioAssay AID179 (DTP/NCI, 2004)
